Usually viability stands for the share of living cells, or the viability signal relative to a control. A lower viability goes with more harm to the cells.

Structures are written as SMILES.

One data set has as its system CT-26 cells. Description: XTT viability of CT-26 cells after direct gas exposure in 96-well plate. In kind it is cell-based. The conditions noted are these: Mus musculus, CT26; 50,000 ppm gNO for 10, 60, or 180 seconds; XTT after 24 hours. The text has this:
(§1) Tumor celllines: The mouse colon carcinoma cell line, CT26WT, was cloned from CT26, an N-nitroso-N-methylurethane-induced, undifferentiated colon carcinoma cell line. The mouse mammary tumor cell line, 4T1, is a 6-thioguanine resistant cell line. When injected into BALB/c mice, 4T1 spontaneously produces highly metastatic tumors that can metastasize to the lung, liver, lymph nodes and brain while the primary tumor is growing in situ. […] Panc 02.03 is a pancreatic adenocarcinoma epithelial cell line derived in 1995 from a primary tumor removed from the head-of-the-pancreas of […] with pancreatic adenocarcinoma. CT26, 4T1 and Panc 02.03 cell lines were grown in RPMI based media (ATCC 30-2001) supplemented with fetal bovine serum and pen-strep (both from Biological Industries). The LLC1/LU2 cell line was grown in DMEM based media (ATCC 30-2002) supplemented with fetal bovine serum and pen-strep (Biological industries). The B16.F10 cell lines was grown in DMEM based media (ATCC 30-2002) supplemented with fetal bovine serum and pen-strep (Biologicalindustries).
(§2) In vitro systems: One system involves a direct exposure of cancer cells to gNO in 96-well plate. Gaseous NO at 150 ppm-50,000 ppm was delivered at 0.3 LPM for 10 seconds—3 minutes. In another system, cancer cells were exposed to gNO in a box made of acrylic glass. […]

Another data set concerns 4T1 cells. Description: XTT viability of 4T1 cells after direct gas exposure in 96-well plate. In kind it is cell-based, mouse.
Text: as §1
(§3) In vitro systems: One system involves a direct exposure of cancer cells to gNO in 96-well plate. Gaseous NO at 150 ppm-50,000 ppm was delivered at 0.3 LPM for 10 seconds—3 minutes. In another system, cancer cells were exposed to gNO in a box made of acrylic glass. Gaseous NO at 10,000-50,000 ppm was delivered at 0.9 LPM for 10 seconds—15 minutes.
(§4) The exposure of the cancer cells to gNO was done after removing the cell culture medium.
(§5) Immediately after gas exposure, cell culture medium was added, and the cells were incubated at a 37° C. and 5% CO2 incubator over-night. To test cell viability, XTT assay and Annexin V-Propidium Iodide assays were performed, according to known protocols.
The effect of continuous gaseous nitric oxide (gNO) at 150 ppm, 4,000 ppm, 10,000 ppm, or 50,000 ppm, compared to air (control), on the survival of 4T1 cancer cell line was tested. 4T1 cells were prepared in RPMI medium and suspended in six 96-well plates. […]
A general note: Tetrazolium assays rely on reduction of a dye to a coloured formazan, in cell work by metabolically active cells.

A further data set relates to PC-3 cells. The data set can be described thus: XTT viability of PC-3 cells after direct gas exposure in 96-well plate. In kind it is cell-based. Here is the method: as §3, §4, §5
PC-3 cells were prepared in RPMI medium and suspended in four 96-well plates. The wells were exposed to the gas by a tubing that was directed at each well for 10, 60 or 180 seconds. The diameter of the gas tubing used was about 25% of the diameter of each well. Three wells were used for each gas and exposure time. The plates were placed in a 5% CO2, 37° C. incubator for 15-18 hours and the viability of the cells was tested by XTT assay.

The test system of a further data set is B16.F10 cells. The data set can be described thus: XTT viability of B16.F10 cells after gas exposure in chamber. In kind it is cell-based. The following applies: 10,000 ppm-25,000 ppm gNO for 3-15 minutes. Here is the method:
as §3, §4, §5
B16.F10 cells were prepared in DMEM medium and suspended in 96-well plates. The plates were placed inside an approx. 2 liter exposure chamber. The plates were exposed to the gas by filling the chamber with gNO for 10 seconds, or 1, 3, 9 or 15 minutes. After exposure, the plates were placed in a 5% CO2, 37° C. incubator for an overnight incubation and the viability of the cells was tested by XTT assay.

The test system of a further data set is Panc02.03 cells. The data set can be described thus: XTT viability of Panc02.03 cells after gas exposure in chamber. In kind it is cell-based. The following applies: 10,000 ppm-25,000 ppm gNO for 1-15 minutes.
Text: as §1, §2

Another data set deals with LLC1 cells. The data set can be described thus: Annexin V-Propidium Iodide apoptosis-necrosis assay of LLC1 cells. In kind it is cell-based. The following applies: 20,000 ppm or 50,000 ppm gNO for 3 minutes, overnight incubation. Here is the method: as §5
In an additional set of experiments, the plates were exposed to the gas (at 20,000 ppm or 50,000 ppm) by filling the chamber with gNO for 3 minutes. After exposure, the plates were placed in a 5% CO2, 37° C. incubator for an overnight incubation and the viability of the cells was tested via Annexin V—Propidium Iodide apoptosis-necrosis assay.

For `[N]=O` [gNO, nitric oxide], the viability at 50000 ppm in the data set with CT-26 cells was roughly 1%; with PC-3 cells (Homo sapiens, PC-3, 50,000 ppm gNO for 180 seconds), roughly 17%. Also, the “4T1 cells remain viable” value with 4T1 cells (4,000-10,000 ppm gNO for 1 minute) is “About 60%”. Further, the “viability of 4T1 cells” value with 4T1 cells (10,000 or 50,000 ppm gNO for 180 seconds) is given as 1-3%. Further, the “4T1 cells remained viable” value with 4T1 cells (10,000 ppm or 50,000 ppm gNO for 10 seconds) is given as “less than 80%”. The “viability of PC-3 cells” value in the data set on PC-3 cells (4,000 ppm and 10,000 ppm gNO for 180 seconds) is listed as 43-48%. For the same molecule, the viability at 4000 ppm in the data set with PC-3 cells (Homo sapiens, PC-3, 1 min, 4,000 ppm, 10,000 ppm and 50,000 ppm gNO for 1 minute) is 44 to 55%; in the data set with PC-3 cells (Homo sapiens, PC-3, 4,000 ppm, 10,000 ppm and 50,000 ppm gNO for 10 seconds), 56 to 72%. In addition, the “viability of B16.F10 cells” value with B16.F10 cells is “less than 5%”. The “viability of Panc02.03 cells” value in the data set on Panc02.03 cells was “less than 5%”. In addition, the “LLC1 cells at late apoptosis” value in the data set with LLC1 cells was 80%-90%.

The record behind these values is patent US20240238417A1, “METHODS OF PRODUCING TUMOR VACCINES AND USES THEREOF” (priority 2021, published 2024).
